ChEMBL document CHEMBL3621186, “Design, synthesis and antitumor activity of non-camptothecin topoisomerase I inhibitors” (Bioorg Med Chem Lett, 2015)
Active and inactive are the calls of the source. The rule behind the calls is not given here.

Key:
[1] = tested on: HepG2; test: Cytotoxicity against human HepG2 cells assessed as inhibition of cell proliferation at 10 uM by MTT assay relative to control; type: functional
[2] = tested on: SK-OV-3; test: Cytotoxicity against human SKOV3 cells assessed as inhibition of cell proliferation at 10 uM by MTT assay relative to control; type: functional
[3] = tested on: HCT-116; test: Cytotoxicity against human HCT116 cells assessed as inhibition of cell proliferation at 10 uM by MTT assay relative to control; type: functional
[4] = tested on: PC-3; test: Cytotoxicity against human PC3 cells assessed as inhibition of cell proliferation at 10 uM by MTT assay relative to control; type: functional
[5] = tested on: U-87 MG; test: Cytotoxicity against human U87MG cells assessed as inhibition of cell proliferation at 10 uM by MTT assay relative to control; type: functional, U-87MG ATCC
[6] = tested on: PC-3; test: Cytotoxicity against human PC3 cells assessed as inhibition of cell proliferation by MTT assay; type: functional, cell-based
[7] = tested on: HCT-116; test: Cytotoxicity against human HCT116 cells assessed as inhibition of cell proliferation by MTT assay; type: functional, cell-based
[8] = tested on: U-87 MG; test: Cytotoxicity against human U87MG cells assessed as inhibition of cell proliferation by MTT assay; type: functional, cell-based, U-87MG ATCC
[9] = tested on: SK-OV-3; test: Cytotoxicity against human SKOV3 cells assessed as inhibition of cell proliferation by MTT assay; type: functional, cell-based
[10] = tested on: HepG2; test: Cytotoxicity against human HepG2 cells assessed as inhibition of cell proliferation by MTT assay; type: functional, cell-based
[11] = target: T1, DNA topoisomerase 1 (Homo sapiens) (UniProt P11387); test: Inhibition of recombinant human DNA topoisomerase-1 assessed as relaxation of supercoiled pBR322 DNA at 50 uM after 30 mins by agarose gel electrophoresis
T1 sequence (whole entry): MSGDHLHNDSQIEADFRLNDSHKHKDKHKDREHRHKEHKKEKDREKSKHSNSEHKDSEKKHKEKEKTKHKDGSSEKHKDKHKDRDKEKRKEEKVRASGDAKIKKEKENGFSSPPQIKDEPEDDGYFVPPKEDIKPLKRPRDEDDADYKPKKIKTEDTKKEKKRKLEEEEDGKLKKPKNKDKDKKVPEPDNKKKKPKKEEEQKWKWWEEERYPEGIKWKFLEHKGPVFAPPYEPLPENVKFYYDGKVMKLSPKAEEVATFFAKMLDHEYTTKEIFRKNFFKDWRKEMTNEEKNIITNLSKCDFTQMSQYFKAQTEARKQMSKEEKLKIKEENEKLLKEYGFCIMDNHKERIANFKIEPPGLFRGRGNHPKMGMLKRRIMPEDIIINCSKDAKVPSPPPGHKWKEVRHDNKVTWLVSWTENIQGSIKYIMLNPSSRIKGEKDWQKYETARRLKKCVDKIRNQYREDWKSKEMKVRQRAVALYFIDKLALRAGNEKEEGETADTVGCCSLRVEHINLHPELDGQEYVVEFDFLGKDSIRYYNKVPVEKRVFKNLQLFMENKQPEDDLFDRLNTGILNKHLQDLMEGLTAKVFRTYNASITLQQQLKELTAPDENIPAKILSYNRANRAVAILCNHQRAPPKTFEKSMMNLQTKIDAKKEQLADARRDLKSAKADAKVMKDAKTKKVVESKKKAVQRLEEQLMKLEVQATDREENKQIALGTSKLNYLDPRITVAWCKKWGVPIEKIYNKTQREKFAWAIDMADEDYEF

SMILES | inhibition at 10 µM [1] [%] | inhibition at 10 µM [2] [%] | inhibition at 10 µM [3] [%] | inhibition at 10 µM [4] [%] | inhibition at 10 µM [5] [%] | IC50 [6] [nM] | IC50 [7] [nM] | IC50 [8] [nM] | IC50 [9] [nM] | IC50 [10] [nM] | inhibition [11]
O=C(NCCO)C1c2c(ccc(Br)c2O)-n2c(=O)c3ccccc3c(=O)n21 (stereo not given) | 15.1 | -4.34 | 3.7 | 6.5 | 0.4 |  |  |  |  |  | 
CCOC(=O)C1c2c(ccc(Br)c2O)-n2c(=O)c3ccccc3c(=O)n21 (stereo not given) | 2.54 | -3.43 | 3.3 | 0.8 | 4.1 |  |  |  |  |  | 
CN(C)CCNC(=O)C1c2c(O)cccc2-n2c(=O)c3ccccc3c(=O)n21 (stereo not given) | -2.82 | -1.46 | -4.2 | 4 | 1.1 |  |  |  |  |  | 
CN(C)CCCNC(=O)C1c2c(ccc(Br)c2O)-n2c(=O)c3ccccc3c(=O)n21 (stereo not given) | -7.99 | -4.1 | -5.7 | 6.4 | -2.5 |  |  |  |  |  | 
COc1ccc2[nH]c3c(c2c1)C(=O)c1ccccc1C3=O | 26.6 | 57.6 | 76.2 | 8.56 | 49 |  |  |  |  |  | 
O=C1c2ccccc2-c2nc3ccccc3nc21 | 53.2 | 10.1 | -1.83 | -8.39 | -14.5 |  |  |  |  |  | 
Cc1ccc2nc3c(nc2c1)C(=O)c1ccccc1-3 | 6.44 | 11.2 | 6.32 | -8.92 | -13.9 |  |  |  |  |  | 
O=C1c2ccccc2-c2nc3cc4ccccc4cc3nc21 | 2.82 | -8.16 | 7.32 | 11.8 | -11.5 |  |  |  |  |  | 
O=C(NCCCO)C1c2c(ccc(Br)c2O)-n2c(=O)c3ccccc3c(=O)n21 (stereo not given) | -8.92 | -4.25 | 5.4 | 5.3 | -4.7 |  |  |  |  |  | 
CCOC(=O)C1c2c(O)cccc2-n2c(=O)c3ccccc3c(=O)n21 (stereo not given) | 11.2 | -3.97 | 0.4 | 4.9 | 1.9 |  |  |  |  |  | 
CN(C)CCn1c2c(c3c4ccccc4c(O)cc31)C(=O)c1ccccc1C2=O | 88.2 | 82.4 | 92 | 66.5 | 78.8 | 389 | 706 | 169 | 1010 | 844 | Active
O=C(NCCCO)C1c2c(O)cccc2-n2c(=O)c3ccccc3c(=O)n21 (stereo not given) | -3.15 | -5.15 | -3.8 | 7.6 | 2.4 |  |  |  |  |  | 
CN(C)CCCn1c2c(c3c4ccccc4c(O)cc31)C(=O)c1ccccc1C2=O | 88 | 77.4 | 91.2 | 59.6 | 86 | 612 | 996 | 325 | 783 | 1970 | Active
O=C1c2ccccc2-c2nc3cc(F)ccc3nc21 | 50.5 | 9.6 | 22.7 | 2.65 | -13.2 |  |  |  |  |  | 
O=C1c2ccccc2-c2nc3ncccc3nc21 | 15.2 | 2.89 | 1.49 | 36.2 | -23.3 |  |  |  |  |  | 
O=C1c2ccccc2-c2nc3cc(C(F)(F)F)ccc3nc21 | 42.9 | -0.82 | 12.2 | -1.15 | -7.67 |  |  |  |  |  | 
CN(C)CCCNC(=O)C1c2c(O)cccc2-n2c(=O)c3ccccc3c(=O)n21 (stereo not given) | -8.92 | -4.01 | -4.5 | 11.1 | -4.7 |  |  |  |  |  | 
O=C1c2ccccc2-c2nc3cccnc3nc21 | 55.4 | 13.2 | 71.9 | 52.7 | 20.8 | 4380 | 44600 |  |  | 33800 | 
CCOC(=O)C1C2=C(CCCC2=O)n2c(=O)c3ccccc3c(=O)n21 (stereo not given) | 12 | -4.89 | 3.5 | 11.1 | 1.5 |  |  |  |  |  | 
COc1ccc2nc3c(nc2c1)C(=O)c1ccccc1-3 | 14.7 | 8.07 | 8.68 | -4.44 | -14.4 |  |  |  |  |  | 
O=C1c2ccccc2-c2nc3ccc(C(F)(F)F)cc3nc21 | 43.8 | 14.2 | 17.2 | 15.9 | -15.6 |  |  |  |  |  | 
O=C(NCCO)C1c2c(O)cccc2-n2c(=O)c3ccccc3c(=O)n21 (stereo not given) | -0.87 | -7.14 | -0.6 | 5 | -0.6 |  |  |  |  |  | 
CN(C)CCNC(=O)C1c2c(ccc(Br)c2O)-n2c(=O)c3ccccc3c(=O)n21 (stereo not given) | 3.89 | -6.16 | -5.8 | 14.3 | 0.1 |  |  |  |  |  | 
COc1ccc2nc3c(nc2c1)-c1ccccc1C3=O | 6.56 | -7.19 | 16.9 | -1.15 | -7.74 |  |  |  |  |  | 
